Results taken from patent US20100069494A1, “LOWERING OF PROTEINS ASSOCIATED WITH ALZHEIMER'S DISEASE BY INTERRUPTING GENE TRANSCRIPTION WITH A SMALL MOLECULE” (BOARD OF GOVERNORS FOR HIGHER EDUCATION, STATE OF RHODE …, priority 2007, published 2010).

Key:
SP1 = target: T1, SP1 (Mus musculus, UniProt O89090); test: Oral tolfenamic acid in mice, Western blot of SP1 in brain; format: in vivo, mice (C57BL/6); conditions: oral gavage 10 or 50 mg/Kg in corn oil on alternate days, Western blot (FIG. 6A)
T1 construct: various brain regions were isolated and stored at −70° C; from tissue; host or cells: brain of adult C57BL/6 mice
T1 sequence (O89090 whole entry): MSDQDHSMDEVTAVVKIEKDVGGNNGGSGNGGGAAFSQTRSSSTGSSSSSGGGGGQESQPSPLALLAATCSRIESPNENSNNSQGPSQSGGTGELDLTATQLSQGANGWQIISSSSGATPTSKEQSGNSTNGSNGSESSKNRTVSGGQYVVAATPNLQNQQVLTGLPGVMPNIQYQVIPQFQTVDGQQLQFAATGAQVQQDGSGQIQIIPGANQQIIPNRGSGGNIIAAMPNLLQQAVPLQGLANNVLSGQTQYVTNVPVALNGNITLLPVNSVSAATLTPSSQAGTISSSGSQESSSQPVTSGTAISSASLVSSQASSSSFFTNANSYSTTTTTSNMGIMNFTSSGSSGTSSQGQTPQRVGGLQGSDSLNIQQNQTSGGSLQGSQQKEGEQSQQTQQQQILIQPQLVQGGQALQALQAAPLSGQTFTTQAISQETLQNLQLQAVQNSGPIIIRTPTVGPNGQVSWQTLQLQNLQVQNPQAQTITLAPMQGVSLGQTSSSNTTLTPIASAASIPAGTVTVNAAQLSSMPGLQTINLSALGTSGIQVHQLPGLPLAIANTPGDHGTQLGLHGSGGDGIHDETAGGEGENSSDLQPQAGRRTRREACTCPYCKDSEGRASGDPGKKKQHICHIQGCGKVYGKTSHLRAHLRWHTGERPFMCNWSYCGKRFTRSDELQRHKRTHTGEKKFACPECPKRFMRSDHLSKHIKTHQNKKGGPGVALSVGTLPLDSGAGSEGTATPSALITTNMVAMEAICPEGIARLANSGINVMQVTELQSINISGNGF
Experimental: (§1) The Oral Administration of Tolfenamic acid to mice lowers SP1, APP, and Aβ levels in the brain (See FIG. 6). Mice were dosed on alternate days by oral gavage with 10 or 50 mg/Kg of tolfenamic acid in corn oil or vehicle alone. Tolfenamic acid (TFA) lowered APP levels by about 50% and Aβ by about 20%. […] FIG. 6A is a representative Western blot of SP1. FIG. 6B is a Western blot analysis of APP expressed as a ratio of a housekeeping gene, FIG. 6C is Aβ analysis by ELISA. Each bar represents the mean of data obtained from 6-9 animals. Data from both doses was combined after statistical analysis. Values marked with an ‘*’ are statistically significant, p<0.0.5.
Animal Exposure: Adult mice (C57BL/6) were obtained from Jackson labs (Maine). They were divided into 2 groups viz., Con (C), drug treated (D). The drug, toelfenamic acid was dissolved in corn oil and administered at various concentrations from 10 mg/Kg to 100 mg/Kg in corn oil by oral gavage. Control mice were dosed with corn oil only. Treatment was given on alternate days for one month. At the end of the exposure period the animals were decapitated following exposure to CO2 and hypothermia and various brain regions were isolated and stored at −70° C. This protocol has been approved by the IACUC of the University of Rhode Island. […]

APP = test: Oral tolfenamic acid in mice, Western blot analysis of APP in brain; format: in vivo, mice (C57BL/6); conditions: oral gavage 10 or 50 mg/Kg in corn oil on alternate days, ratio to housekeeping gene, both doses combined (FIG. 6B)
Experimental: as §1, with “p<0.0.5. Animal Exposure: Adult mice (C57BL/6) were obtained from Jackson labs (Maine). They were divided into 2 groups viz., Con (C), drug treated (D). The drug, toelfenamic acid was dissolved in corn oil and administered at various concentrations from 10 mg/Kg to 100 mg/Kg in corn oil by oral gavage. Control mice were dosed with corn oil only. Treatment was given on alternate days for one month. At the end of the exposure period the animals were decapitated following exposure to CO2 and hypothermia and various brain regions were isolated and stored at −70° C. This protocol has been approved by the IACUC of the University of Rhode Island. […]” for “p<0.0.5.”

Aβ = test: Oral tolfenamic acid in mice, Aβ analysis by ELISA in brain; format: in vivo, mice (C57BL/6); conditions: oral gavage 10 or 50 mg/Kg in corn oil on alternate days, both doses combined (FIG. 6C)
Experimental: The Oral Administration of Tolfenamic acid to mice lowers SP1, APP, and Aβ levels in the brain (See FIG. 6). Mice were dosed on alternate days by oral gavage with 10 or 50 mg/Kg of tolfenamic acid in corn oil or vehicle alone. Tolfenamic acid (TFA) lowered APP levels by about 50% and Aβ by about 20%. […] FIG. 6A is a representative Western blot of SP1. FIG. 6B is a Western blot analysis of APP expressed as a ratio of a housekeeping gene, FIG. 6C is Aβ analysis by ELISA. Each bar represents the mean of data obtained from 6-9 animals. Data from both doses was combined after statistical analysis. Values marked with an ‘*’ are statistically significant, p<0.0.5. Animal Exposure: Adult mice (C57BL/6) were obtained from Jackson labs (Maine). They were divided into 2 groups viz., Con (C), drug treated (D). The drug, toelfenamic acid was dissolved in corn oil and administered at various concentrations from 10 mg/Kg to 100 mg/Kg in corn oil by oral gavage. Control mice were dosed with corn oil only. Treatment was given on alternate days for one month. […] ELISA Assays: Aβ-40 and Aβ-42 levels were measured using a combination of monoclonal antibody (mAb) 6E10 (specific to an epitope present on 1-16 amino acid residues of Aβ) and R162, and R164 respectively in a double-antibody sandwich ELISA (Mehta et al., 1998; Morishima-Kawashima et al., 2000; Basha et al., 2005).

Sp1, Sp3 and Sp4 = conditions: pancreatic cancer cells and tumors; background statement; cited from earlier work

Cc1c(Cl)cccc1Nc1ccccc1C(=O)O [Tolfenamic acid]
SP1 levels in the brain (SP1): lowers
lowering of APP levels (APP): about 50%
lowering of Aβ levels (Aβ): about 20%
degradation of Sp1, Sp3 and Sp4 (Sp1, Sp3 and Sp4): can induce proteasome-dependent degradation of Sp1, Sp3 and Sp4
